The test concerns angiotensin II-induced pressor responses. The test can be described thus: Test C: inhibition of angiotensin II-induced pressor responses in terminally-anaesthetised or conscious rats. In kind it is in vivo. The conditions noted are these: iv, rat, i.v. administration. The source says: The antagonism of one or more of the physiological actions of AII and, in particular, the antagonism of the interaction of AII with the receptors which mediate its effects on a target tissue, may be assessed using one or more of the following, routine laboratory procedures: Test C: This in vivo test involves using terminally-anaesthetised or conscious rats in which an arterial catheter has been implanted under anaesthesia for the measurement of changes in blood pressure. The AII antagonistic effects of the test compound following oral or parenteral administration, are assessed against angiotensin II-induced pressor responses. To ensure that the effect is specific, the effect of the test compound on vasopressin-induced pressor responses may also be determined in the same preparation.

For orientation: ED50 means the dose that gives a 50% effect, or the effect in half of the subjects. High values mean a need for a large dose, low ones an effect at a small dose. For the compound `Cc1cc(NCc2ccc(-c3ccccc3-c3nnn[nH]3)cc2)c(I)c(C)n1.Cl` [Example 1, 2,6-dimethyl-3-iodo-4-[(2'-(1H-tetrazol-5-yl)biphenyl-4-yl)methylamino]pyridine hydrochloride], it took a dose of 0.047 mg/kg to reach the 50% effect level (ED50).

These data come from US5236937A, “Pyridinyl compounds which are useful as angiotensin II antagonists” (Imperial Chemical Industries PLC, priority 1991, dated 1993).
